{"source": "patent US20060252774A1", "about": "“Regulation of type 5 adenylyl cyclase for treatment of neurodegenerative and cardiac diseases” (priority 2002, published 2006)", "key": {"WT and AC5KO mice [1]": {"tested_on": "WT and AC5KO mice", "test": "Locomotor activity test with dopaminergic agonists", "format": "in vivo, mouse", "conditions": "subcutaneous, SKF38393 25 or 50 mg/kg, cabergoline 0.2 or 1.0 mg/kg", "procedure": "FIG. 27. Motor dysfunction in ACD-^−/− mice. Rotarod test (A)—Each mouse was placed on a 3.5-cm diameter rod covered with rubber to evaluate rotarod performance (14). Mice were left for 1 minute on the rod for habituation. The rod rotated gradually increasing from 4 to 40 rpm over the course of 5 min and the time that mice could stay on an accelerating rotarod without failing was recorded. Five trials were conducted for each individual 10-25 min apart within the dark phase of the light/dark cycle. Mice that stayed on the rotarod for >300 sec were considered complete responders, and their latencies were recorded as 300 sec. *p<0.05, relative to ^+/+; ^+/−, n=17-20. […] Locomotor activity (B) was assessed using an activity monitor equipped with photocell beams (Columbus Instruments, Ohio, USA). The number of photobeam interruptions in each perpendicular axis was recorded and totaled for 5 min. The behavior of the mice was recorded simultaneously by video camera for later analysis, and their rearing actions were counted (C). *p<0.05, relative to ^+/+, n=15-20. […] The time until it turned completely downward (open bars, Tturn) and the time until it climbed down to the floor (closed bars, TLA) were measured *p<0.01, relative to ^+/+, n=14-17. […]\nFIG. 32. […] In rotarod test, the best performance out of five trials in each individual was evaluated. […]"}, "WT and AC5KO mice [2]": {"tested_on": "WT and AC5KO mice", "test": "Rotarod test with dopaminergic agonists", "format": "in vivo, mouse", "conditions": "subcutaneous, 0.2 or 1.0 mg/kg", "procedure": "(§1) FIG. 27. Motor dysfunction in ACD-^−/− mice. Rotarod test (A)—Each mouse was placed on a 3.5-cm diameter rod covered with rubber to evaluate rotarod performance (14). Mice were left for 1 minute on the rod for habituation. The rod rotated gradually increasing from 4 to 40 rpm over the course of 5 min and the time that mice could stay on an accelerating rotarod without failing was recorded. Five trials were conducted for each individual 10-25 min apart within the dark phase of the light/dark cycle. Mice that stayed on the rotarod for >300 sec were considered complete responders, and their latencies were recorded as 300 sec. *p<0.05, relative to ^+/+; ^+/−, n=17-20. Activity tests (B and C)—The tests were performed as previously described (14, 15). Mice were put in the darkened testing room 60 minutes for habituation before testing. Locomotor activity (B) was assessed using an activity monitor equipped with photocell beams (Columbus Instruments, Ohio, USA). The number of photobeam interruptions in each perpendicular axis was recorded and totaled for 5 min. The behavior of the mice was recorded simultaneously by video camera for later analysis, and their rearing actions were counted (C). *p<0.05, relative to ^+/+, n=15-20. Pole test (D)—In order to evaluate bradykinesia, pole test was performed (16). In brief, mice were placed head upward on the top of a rough-surfaced pole (8 mm in diameter and 50 cm in height) that was wrapped with gauze to prevent slipping. The time until it turned completely downward (open bars, Tturn) and the time until it climbed down to the floor (closed bars, TLA) were measured *p<0.01, relative to ^+/+, n=14-17. Means±SEM are shown. Homozygous to (ACD^−/−) (closed circles, ^−/−), heterozygous (shaded circles, ^+/−), and wild type (WT) (open circles, ^+/+).\n(§2) FIG. 32. Effect of dopaminergic agonists on motor functions Effects of SKF38393 on locomotor activity (A), rotarod test (B), and pole test (C) were compared. […] In rotarod test, the best performance out of five trials in each individual was evaluated. […]"}, "WT and AC5KO mice [3]": {"tested_on": "WT and AC5KO mice", "test": "Pole test with dopaminergic agonists", "format": "in vivo, mouse", "procedure": "as §1, §2"}, "cardiac AC": {"tested_on": "cardiac AC", "test": "AC assay in heart membrane preparations", "format": "biochemical, mouse", "conditions": "100 μmol/L ISO + 100 μmol/L GTP", "procedure": "FIG. 17: Adrenergic, muscarinic, and Ca^2+-mediated regulation of cardiac AC activity. A, AC activity in vitro. The steady state AC activity was determined as the maximal cAMP production over 15 min. Stimulation was performed at the level of the β-AR (ISO), G-protein (GTPγS) and AC catalytic unit with forskolin (Fsk). *P<0.01, n=5. B, Effects of carbachol on AC activity. AC was preactivated by ISO. AC activity was then determined in the absence and presence of carbachol. Carbachol at 10 μmol/L produced its maximal inhibitory effect. *P<0.01, n−5. C, To investigate the inhibition of AC activity by Ca^2+, we examined cAMP production in membranes from the hearts of WT and AC5KO at increasing Ca^2+ concentrations in the presence of ISO. ISO-stimulated AC activity was inhibited more in WT than in AC5KO. […].\nHearts were dissected from the mice and membrane preparations were prepared as described previously. Protein concentration was measured by the method of Bradford using bovine serum albumin as a standard. AC activity was measured as described previously. AC activity was linear within the incubation time up to 30 min. In order to harvest hearts for tissue cAMP content measurements, mice were allowed to acclimate to the surroundings in the laboratory for an hour before sacrifice. Freshly isolated hearts were briefly immersed in liquid nitrogen. The tissue was homogenized in ice-cold 6% percholic acid, and cAMP was extracted as described before. The concentration of cAMP was determined with an RIA kit (PerkinElmer Life Sciences, Boston, Mass., USA).\nHearts were dissected from the mice, and membrane preparations were prepared as described previously. Protein concentration was measured by the Bradford method using bovine serum albumin as a standard. AC activity was measured as described previously. AC activity was linear within the incubation time up to 30 min. For the study of Ca 2+ inhibition, the membranes were treated first with EGTA to extract the endogenous Ca 2+ prior to the assay. Free Ca 2+ concentrations were obtained with the use of 200 μmol/L EGTA buffers as described previously. The experiments with Ca 2+ inhibition were conducted in the presence of 100 μmol/L isoproterenol (ISO)+100 μmol/L GTP."}, "L-type Ca2+ channels": {"tested_on": "L-type Ca2+ channels", "test": "Whole-cell patch-clamp of Ca2+ channel currents (ICa) in myocytes", "format": "cell-based, mouse", "source_text": "FIG. 22: A, Effects of ISO (1 μmol/L) on ICa in WT and AC5KO myoctyes. Traces show currents recorded from a holding potential of −50 mV to indicated potentials in control before (a) and after application of ISO (1 μmol/L) (b). Peak ICa were normalized to the cell capacitance to give current densities (pA/pF) and were plotted as a function of voltage (c). B, Concentration-dependent effects of ISO on ICa measured in myocytes dialyzed with EGTA or BAPTA, and on Ba^2+ currents with EGTA. The relative increase of peak current amplitude was plotted against ISO concentration. The solid lines were best fit to one-to-one binding model. Data are from 8-30 myocytes.\nWhole-cell currents were recorded using patch-clamp techniques. Cell capacitance was measured using voltage ramps of 0.8 V/s from a holding potential of −50 mV. All experiments were performed at room temperature. […] The pipette solution contained (mmol/L): Cs-aspartate, 100; CsCl, 20; MgCl2, 1; MgATP, 2; GTP, 0.5; EGTA, 5 or 1,2-bis (2-aminophenoxy)ethane-N,N,N′,N′-tetraacetic acid (BAPTA), 10 and HEPES, 5 (Ph 7.3). […] Nifedipine (10 μmol/L) was added to block L-type Ca^2+ channel currents. The patch pipette solution contained (mmol/L): potassium aspartate, 110; KCl, 20; MgCl2, 2; ATP, 2; GTP, 0.5; EGTA, 5; HEPES, 5 (pH 7.3).\nCa^2+ influx through L-type Ca^2+ channels is essential for cardiac contractility, thus basic Ca^2+ channel properties were characterized. Peak inward ICa amplitude (with 5 mmol/L EGTA in the pipette solution), normalized relative to cell capacitance (ICa density), was similar in myocytes isolated from AC5KO (7.1±0.3 pA/pF, n=69) and WT (6.7±0.3 pA/pF, n=55). […] In these experiments myocytes were dialyzed with BAPTA, and peak ICa amplitude, as the function of voltage (I-V relationships) before and after exposure to ISO, was determined. In both groups, ISO increased the current amplitude at all test potentials and also shifted the I-V relationships toward more negative potentials."}, "[4]": {"tested_on": "WT, hetero and AC5KO mice", "test": "Rotor-rod test after db-cAMP injection", "format": "in vivo, mouse", "procedure": "FIG. 9: Effects of db-cAMP on rotor-rod test. Tests were performed before (pre), 30 minutes after (post), and 48 hours after (next) the injection of db-cAMP to WT, hetero and AC5KO (n=4-7).\nThe locomotor activity of intact animals, AC5KO versus WT was examined (FIG. 5). At first glance the animals appeared normal, being neither catatonic nor rigid. […] The mice were studied using a rotor rod test in which mice were placed on a rototating rod and had to make continuous adjustment in balance in order to remain upright. The time that the mice spent on the accelerating rotor rod without falling was measured. The rod increased from 3 rpm to 30 rpm during each 5 min. trial. […] There was no significant difference between WT and Hetero at the 1st through 4th trial. At the 5th trial, there was a small but signiifcant decrease in their performance in Hetero.\nMotor function may be improved by the administration of cAMP analogues."}}, "data": [{"smiles": "C=CCN1C[C@H](C(=O)N(CCCN(C)C)C(=O)NCC)C[C@@H]2c3cccc4[nH]cc(c34)C[C@H]21", "note": "[Cabergoline]", "values": [{"measurement": "locomotor activity", "setting": "WT and AC5KO mice [1]", "value": "no significant effect on locomotor activity in both WT and AC5KO"}, {"measurement": "rotarod performance", "setting": "WT and AC5KO mice [2]; AC5KO", "value": "improved rotarod performance selectively in AC5KO"}, {"measurement": "rotarod performance", "setting": "WT and AC5KO mice [2]; WT", "value": "essentially had no effect on WT"}, {"measurement": "pole test performance at the lower dose", "setting": "WT and AC5KO mice [3]; 0.2 mg/kg", "value": "dramatic improvement"}, {"measurement": "pole test performance", "setting": "WT and AC5KO mice [3]; subcutaneous", "value": "improved pole test performance"}]}, {"smiles": "CC(C)NCC(O)c1ccc(O)c(O)c1", "note": "(stereo not shown) [ISO, isoproterenol]", "values": [{"measurement": "increase of AC activity", "setting": "cardiac AC; AC5KO heart membranes", "value": "64±4", "unit": "pmol/15 min/mg"}, {"measurement": "increase of AC activity", "setting": "cardiac AC; WT heart membranes", "value": "78±6", "unit": "pmol/15 min/mg"}, {"measurement": "maximum response of the Ca2+ channel (relative increase of peak current)", "setting": "L-type Ca2+ channels; AC5KO myocytes, all three conditions (EGTA, BAPTA, Ba2+)", "value": "~1.5", "unit": "fold"}, {"measurement": "maximum response of the Ca2+ channel (relative increase of peak current)", "setting": "L-type Ca2+ channels; WT myocytes dialyzed with EGTA", "value": "~1.7", "unit": "fold"}, {"measurement": "maximum response of the Ca2+ channel (relative increase of peak current)", "setting": "L-type Ca2+ channels; WT myocytes, BAPTA or Ba2+", "value": "~2.4", "unit": "fold"}]}, {"smiles": "CCCC(=O)Nc1ncnc2c1ncn2[C@@H]1O[C@@H]2COP(=O)(O)O[C@H]2[C@H]1OC(=O)CCC", "note": "[db-cAMP]", "values": [{"measurement": "improvement of time on the rod", "setting": "[4]; AC5KO, 30 minutes after injection", "value": "two-fold increase"}, {"measurement": "rotor rod performance 48 hours after injection", "setting": "[4]; AC5KO, 48 hours after injection", "value": "dropped to the basal level"}, {"measurement": "improvement of time on the rod, increase", "setting": "[4]; hetero and WT, 30 minutes after injection", "value": "25-30%"}]}]}
